Source: patent publication US9452986B2, “6-heteroaryloxy- or 6-aryloxy-quinoline-2-carboxamides and method of use” (AbbVie Inc., priority 2014, dated 2016)

What follows are compounds tested against recombinant human Nav1.7 (Homo sapiens (Human), UniProt Q15858) (assay: FRET-based membrane potential assay, recombinant human sodium channel Nav1.7). Conditions: FRET-Membrane Potential Nav1.7 IC50.
Type: cell-based
How it was run: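 Channel activation used veratridine at its EC80, set by a dilution curve each experiment, together with Leiurus scorpion venom, added 3 min after compound. Membrane-potential ratio signals from FLIPR Tetra in HEPES-buffered HBSS were fitted to a four-parameter Hill equation for percent inhibition and IC50.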

recombinant human Nav1.7, sequence (Q15858 whole entry): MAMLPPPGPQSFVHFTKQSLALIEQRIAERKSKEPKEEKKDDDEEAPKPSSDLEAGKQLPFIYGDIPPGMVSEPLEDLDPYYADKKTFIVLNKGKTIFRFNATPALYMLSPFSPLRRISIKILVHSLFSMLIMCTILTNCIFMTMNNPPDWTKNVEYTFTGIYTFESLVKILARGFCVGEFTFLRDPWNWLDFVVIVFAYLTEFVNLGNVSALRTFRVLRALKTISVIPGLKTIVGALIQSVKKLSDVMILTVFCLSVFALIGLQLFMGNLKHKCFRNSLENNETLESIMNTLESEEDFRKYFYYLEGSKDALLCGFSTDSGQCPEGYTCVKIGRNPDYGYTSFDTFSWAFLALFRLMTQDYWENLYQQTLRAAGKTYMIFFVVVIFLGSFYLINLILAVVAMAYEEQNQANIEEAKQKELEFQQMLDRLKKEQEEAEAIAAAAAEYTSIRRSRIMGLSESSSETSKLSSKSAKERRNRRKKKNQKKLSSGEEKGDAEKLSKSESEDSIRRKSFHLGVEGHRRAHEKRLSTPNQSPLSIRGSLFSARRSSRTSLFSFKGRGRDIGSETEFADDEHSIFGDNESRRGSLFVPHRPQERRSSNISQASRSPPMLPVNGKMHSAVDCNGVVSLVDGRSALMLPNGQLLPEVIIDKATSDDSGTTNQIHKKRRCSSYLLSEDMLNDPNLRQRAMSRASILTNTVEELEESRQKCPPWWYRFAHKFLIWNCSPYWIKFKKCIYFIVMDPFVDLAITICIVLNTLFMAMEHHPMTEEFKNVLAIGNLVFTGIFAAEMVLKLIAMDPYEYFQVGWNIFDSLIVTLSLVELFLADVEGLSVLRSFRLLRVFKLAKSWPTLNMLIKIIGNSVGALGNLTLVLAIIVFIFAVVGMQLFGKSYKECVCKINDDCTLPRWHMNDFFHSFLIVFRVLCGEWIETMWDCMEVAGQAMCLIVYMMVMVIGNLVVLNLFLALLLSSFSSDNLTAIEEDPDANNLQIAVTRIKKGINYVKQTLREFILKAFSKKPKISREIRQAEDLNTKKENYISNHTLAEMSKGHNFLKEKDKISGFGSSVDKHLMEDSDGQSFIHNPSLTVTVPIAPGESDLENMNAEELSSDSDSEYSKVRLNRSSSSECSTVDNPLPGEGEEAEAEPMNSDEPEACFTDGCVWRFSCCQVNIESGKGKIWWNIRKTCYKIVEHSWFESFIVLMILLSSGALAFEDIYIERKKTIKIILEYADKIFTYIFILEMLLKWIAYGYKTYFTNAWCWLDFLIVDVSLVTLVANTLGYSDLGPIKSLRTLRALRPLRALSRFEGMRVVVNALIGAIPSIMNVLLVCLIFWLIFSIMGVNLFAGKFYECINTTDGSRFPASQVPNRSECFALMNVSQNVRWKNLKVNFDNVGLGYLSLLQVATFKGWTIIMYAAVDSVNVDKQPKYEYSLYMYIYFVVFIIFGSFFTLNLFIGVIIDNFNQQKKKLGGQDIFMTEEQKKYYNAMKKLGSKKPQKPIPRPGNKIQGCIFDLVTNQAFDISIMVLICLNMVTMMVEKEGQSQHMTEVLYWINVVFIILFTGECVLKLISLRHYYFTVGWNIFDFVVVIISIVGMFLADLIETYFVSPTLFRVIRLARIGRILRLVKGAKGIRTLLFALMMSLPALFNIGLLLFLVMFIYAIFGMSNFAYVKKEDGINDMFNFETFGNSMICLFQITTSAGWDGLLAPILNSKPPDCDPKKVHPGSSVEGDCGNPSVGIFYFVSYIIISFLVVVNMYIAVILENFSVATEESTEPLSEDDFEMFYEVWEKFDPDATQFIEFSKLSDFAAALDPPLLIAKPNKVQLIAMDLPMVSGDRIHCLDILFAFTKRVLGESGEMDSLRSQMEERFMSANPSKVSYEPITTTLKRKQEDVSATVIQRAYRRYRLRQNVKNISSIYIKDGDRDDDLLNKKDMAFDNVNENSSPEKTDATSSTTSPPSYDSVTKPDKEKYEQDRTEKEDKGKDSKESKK

SMILES | IC50
O=C(c1ccc2cc(Oc3ccc(C(F)(F)F)nc3)ccc2n1)N1C[C@@H](O)[C@@H](O)C1 [Example 546, [cis-3,4-dihydroxypyrrolidin-1-yl](6-{[6-(trifluoromethyl)pyridin-3-yl]oxy}quinolin-2-yl)methanone] | 10.1 µM

Same assay, conditions: HEK293 cells stably expressing recombinant human Nav1.7; veratridine + scorpion venom depolarization; read-out: FRET-Membrane Potential Nav1.7 IC50

SMILES | IC50
O=C(c1ccc2cc(Oc3ccc(C(F)(F)F)nc3)ccc2n1)N1CCN[C@@H](CO)C1 [Example 544, [(3R)-3-(hydroxymethyl)piperazin-1-yl](6-{[6-(trifluoromethyl)pyridin-3-yl]oxy}quinolin-2-yl)methanone] | 3.45 µM
O=C(c1ccc2cc(Oc3ccc(C(F)(F)F)nc3)ccc2n1)N1CCN[C@H](CO)C1 [Example 545, [(3S)-3-(hydroxymethyl)piperazin-1-yl](6-{[6-(trifluoromethyl)pyridin-3-yl]oxy}quinolin-2-yl)methanone] | 3.7 µM
O=C(c1ccc2cc(Oc3ccc(C(F)(F)F)nc3)ccc2n1)N1CC[C@@H](F)C1 [Example 548, [(3R)-3-fluoropyrrolidin-1-yl](6-{[6-(trifluoromethyl)pyridin-3-yl]oxy}quinolin-2-yl)methanone] | 4.05 µM
C[C@H]1CN(C(=O)c2ccc3cc(Oc4ccc(C(F)(F)F)nc4)ccc3n2)CCN1 [Example 549, [(3S)-3-methylpiperazin-1-yl](6-{[6-(trifluoromethyl)pyridin-3-yl]oxy}quinolin-2-yl)methanone] | 2.49 µM
O=C(c1ccc2cc(Oc3ccc(C(F)(F)F)nc3)ccc2n1)N1CC[C@H](F)C1 [Example 550, [(3S)-3-fluoropyrrolidin-1-yl](6-{[6-(trifluoromethyl)pyridin-3-yl]oxy}quinolin-2-yl)methanone] | 10.7 µM
CC1CN(C(=O)c2ccc3cc(Oc4ccc(C(F)(F)F)cn4)ccc3n2)CC(C)N1 (stereo not shown) [Example 552, (3,5-dimethylpiperazin-1-yl)(6-{[5-(trifluoromethyl)pyridin-2-yl]oxy}quinolin-2-yl)methanone] | 0.615 µM
O=C(c1ccc2cc(Oc3ccc(C(F)(F)F)nc3)ccc2n1)N1CC(N2CCOCC2)C1 [Example 554, [3-(morpholin-4-yl)azetidin-1-yl](6-{[6-(trifluoromethyl)pyridin-3-yl]oxy}quinolin-2-yl)methanone] | 14.1 µM
O=C(NC1CC(F)(F)C1)c1ccc2cc(Oc3ccc(C(F)(F)F)nc3)ccc2n1 [Example 555, N-(3,3-difluorocyclobutyl)-6-{[6-(trifluoromethyl)pyridin-3-yl]oxy}quinoline-2-carboxamide] | 2.7 µM
CC1(O)CCN(C(=O)CNC(=O)c2ccc3cc(Oc4ccc(C(F)(F)F)cn4)ccc3n2)C1 (stereo not shown) [Example 561, N-[2-(3-hydroxy-3-methylpyrrolidin-1-yl)-2-oxoethyl]-6-{[5-(trifluoromethyl)pyridin-2-yl]oxy}quinoline-2-carboxamide] | 3.47 µM
O=C(NCC(=O)N1C[C@H](O)[C@@H](O)C1)c1ccc2cc(Oc3ccc(C(F)(F)F)cn3)ccc2n1 [Example 562, N-{2-[(3S,4S)-3,4-dihydroxypyrrolidin-1-yl]-2-oxoethyl}-6-{[5-(trifluoromethyl)pyridin-2-yl]oxy}quinoline-2-carboxamide] | > 20 µM
O=C(NCC(=O)N1C[C@@H](O)[C@H](O)C1)c1ccc2cc(Oc3ccc(C(F)(F)F)cn3)ccc2n1 [Example 563, N-{2-[(3R,4R)-3,4-dihydroxypyrrolidin-1-yl]-2-oxoethyl}-6-{[5-(trifluoromethyl)pyridin-2-yl]oxy}quinoline-2-carboxamide] | > 20 µM
O=C(NCC(=O)N1C[C@H](O)C[C@H]1CO)c1ccc2cc(Oc3ccc(C(F)(F)F)cn3)ccc2n1 [Example 564, N-{2-[(2S,4R)-4-hydroxy-2-(hydroxymethyl)pyrrolidin-1-yl]-2-oxoethyl}-6-{[5-(trifluoromethyl)pyridin-2-yl]oxy}quinoline-2-carboxamide] | 16.6 µM
O=C(NCC(=O)N1CCC(F)(F)C1)c1ccc2cc(Oc3ccc(C(F)(F)F)cn3)ccc2n1 [Example 565, N-[2-(3,3-difluoropyrrolidin-1-yl)-2-oxoethyl]-6-{[5-(trifluoromethyl)pyridin-2-yl]oxy}quinoline-2-carboxamide] | 3.43 µM

Same assay, conditions: read-out: FRET-Membrane Potential Nav1.7 IC50

SMILES | IC50
CC[C@@H]1CN(C(=O)c2ccc3cc(Oc4ccc(C(F)(F)F)nc4)ccc3n2)CCN1 [Example 543, [(3R)-3-ethylpiperazin-1-yl](6-{[6-(trifluoromethyl)pyridin-3-yl]oxy}quinolin-2-yl)methanone] | 0.398 µM
O=C(NCCOC(F)(F)F)c1ccc2cc(Oc3ccc(C(F)(F)F)cn3)ccc2n1 [Example 547, N-[2-(trifluoromethoxy)ethyl]-6-{[5-(trifluoromethyl)pyridin-2-yl]oxy}quinoline-2-carboxamide] | 3.29 µM
O=C(NCC(O)C(F)(F)F)c1ccc2cc(Oc3ccc(C(F)(F)F)nc3)ccc2n1 (stereo not shown) [Example 551, N-(3,3,3-trifluoro-2-hydroxypropyl)-6-{[6-(trifluoromethyl)pyridin-3-yl]oxy}quinoline-2-carboxamide] | 2.77 µM
CC[C@H]1CN(C(=O)c2ccc3cc(Oc4ccc(C(F)(F)F)nc4)ccc3n2)CCN1 [Example 553, [(3S)-3-ethylpiperazin-1-yl](6-{[6-(trifluoromethyl)pyridin-3-yl]oxy}quinolin-2-yl)methanone] | 0.949 µM
O=C1CC(NC(=O)c2ccc3cc(Oc4ccc(C(F)(F)F)nc4)ccc3n2)C1 [Example 556, N-(3-oxocyclobutyl)-6-{[6-(trifluoromethyl)pyridin-3-yl]oxy}quinoline-2-carboxamide] | 2.81 µM
O=C(c1ccc2cc(Oc3ccc(C(F)(F)F)cn3)ccc2n1)N1CC(N2CCNCC2)C1 [Example 557, [3-(piperazin-1-yl)azetidin-1-yl](6-{[5-(trifluoromethyl)pyridin-2-yl]oxy}quinolin-2-yl)methanone] | 16.7 µM
O=C(c1ccc2cc(Oc3ccc(C(F)F)cn3)ccc2n1)N1CCNC2(CC2)C1 [Example 558, 4,7-diazaspiro[2.5]oct-7-yl(6-{[5-(difluoromethyl)pyridin-2-yl]oxy}quinolin-2-yl)methanone] | 4.49 µM
O=C(NCC(=O)N1CC[C@@H](O)C1)c1ccc2cc(Oc3ccc(C(F)(F)F)cn3)ccc2n1 [Example 559, N-{2-[(3R)-3-hydroxypyrrolidin-1-yl]-2-oxoethyl}-6-{[5-(trifluoromethyl)pyridin-2-yl]oxy}quinoline-2-carboxamide] | 3.02 µM
O=C(NCC(=O)N1CC[C@H](O)C1)c1ccc2cc(Oc3ccc(C(F)(F)F)cn3)ccc2n1 [Example 560, N-{2-[(3S)-3-hydroxypyrrolidin-1-yl]-2-oxoethyl}-6-{[5-(trifluoromethyl)pyridin-2-yl]oxy}quinoline-2-carboxamide] | 2.87 µM
O=C(NCC(=O)N1CC(O)C1)c1ccc2cc(Oc3ccc(C(F)(F)F)cn3)ccc2n1 [Example 566, N-[2-(3-hydroxyazetidin-1-yl)-2-oxoethyl]-6-{[5-(trifluoromethyl)pyridin-2-yl]oxy}quinoline-2-carboxamide] | 2.37 µM
CC1(O)CN(C(=O)CNC(=O)c2ccc3cc(Oc4ccc(C(F)(F)F)cn4)ccc3n2)C1 [Example 567, N-[2-(3-hydroxy-3-methylazetidin-1-yl)-2-oxoethyl]-6-{[5-(trifluoromethyl)pyridin-2-yl]oxy}quinoline-2-carboxamide] | 3.28 µM
